Source: patent US5162354A, “3-halo-5-halomethyl-2-oxazolidinones and their use as microbicides” (Buckman Laboratories International, Inc., priority 1991, dated 1992)
Values after ≈ are worked out from the molar mass of the structure shown. Where two headings read alike, the source gives them in different places.

Assays:
Assay type in all cases: cell-based
Streptococcus faecalis = assay: AOAC Germicidal and Detergent Sanitizing Action of Disinfectants (Streptococcus faecalis)
Description: (§1) This test is conducted according to AOAC methods described in AOAC Official Methods of Analysis (1984) p 70. This test is suitable for chemicals that can be permitted for use in sanitizing precleaned non-porous food contact surfaces. This test also determines the effectiveness of compounds tested in hard water. Most of the detergents/sanitizers available in the market become ineffective in the presence of hard water, i.e. water containing calcium and/or magnesium ions. A water hardness value of 400 ppm was chosen because it is considered to be the highest hardness value for tap water in the United States.

Escherichia coli = assay: AOAC Germicidal and Detergent Sanitizing Action of Disinfectants (Escherichia coli)
Description: as §1

Salmonella choleraesuis = assay: AOAC Disinfectant Swimming Pool Assay (Salmonella choleraesuis); conditions: Salmonella enterica, 10 min, contact time 10 minutes, read-out: MIC (Minimum inhibitory concentration required to inhibit microorganisms)
Description: This example was based on the procedure described in AOAC (Association of Official Analytical Chemists) Official Methods of Analysis (1986) pp 75-77. The results obtained by this method are suitable for presumptive evidence of acceptability of products for disinfecting swimming pool water. The results obtained for Compound 1 in a contact time of 10 minutes are noted in Table IV.

[1] = tested on: mixture of Staphylococcus aureus, Enterobacter aerogenes and Pseudomonas aeruginosa; assay: Long-term effectiveness in water as disinfectant, basal salts method, mixture of test organisms; conditions: read-out: % Reduction (Kill)
Description: In order to test the effectiveness of the compounds of the present invention over a period of 15 days, the following experiment was conducted using Compound 1.
The basal salts method described in U.S. Pat. No. 2,881,070 at column 5, beginning at line 12 and extending to column 6, line 53 was performed at two different pH values and percent kills were obtained with a mixture of test organisms (Staphylococcus aureus, Enterobacter aerogenes and Pseudomonas aeruginosa). […] At 80 ppm, prolonged sanitizing ability is maintained (99% or greater) with prolonged exposure times (24 hours contact through 15 […] post-preparation in water).
^a Control indicates the population of the test organism and is used
to make sure there is vigorous growth and to calculate % kills.

[2] = Hard Water (400 ppm calcium carbonate)
[3] = 10 min, pH 6, Day 1 after preparation in soft water, pH 6.0, 10 min contact
[4] = 10 min, pH 6, Day 2 after preparation in soft water, pH 6.0, 10 min contact
[5] = 10 min, pH 6, Day 3 after preparation in soft water, pH 6.0, 10 min contact
[6] = 10 min, pH 6, Day 4 after preparation in soft water, pH 6.0, 10 min contact
[7] = 10 min, pH 6, Day 5 after preparation in soft water, pH 6.0, 10 min contact
[8] = 10 min, pH 6, Day 14 after preparation in soft water, pH 6.0, 10 min contact
[9] = 10 min, pH 6, Day 15 after preparation in soft water, pH 6.0, 10 min contact
[10] = 10 min, pH 8, Day 1 after preparation in soft water, pH 8.0, 10 min contact
[11] = 10 min, pH 8, Day 2 after preparation in soft water, pH 8.0, 10 min contact
[12] = 10 min, pH 8, Day 3 after preparation in soft water, pH 8.0, 10 min contact
[13] = 10 min, pH 8, Day 4 after preparation in soft water, pH 8.0, 10 min contact
[14] = 10 min, pH 8, Day 5 after preparation in soft water, pH 8.0, 10 min contact
[15] = 10 min, pH 8, Day 14 after preparation in soft water, pH 8.0, 10 min contact
[16] = 10 min, pH 8, Day 15 after preparation in soft water, pH 8.0, 10 min contact

O=C1OC(CCl)CN1Br (stereo not shown) [Compound 1, 3-Bromo-5-chloromethyl-2-oxazolidinone]
MIC (Streptococcus faecalis; Enterococcus faecalis, Soft Water, read-out: Minimum inhibitory concentration required to inhibit microorganisms): 80 µg/mL (≈ 373 µM) | Minimum inhibitory concentration required to inhibit microorganisms (Streptococcus faecalis; [2]): 80 parts per million (w/v) | Minimum inhibitory concentration required to inhibit microorganisms (Escherichia coli; [2]): 80 parts per million (w/v) | MIC (Escherichia coli; Soft Water, read-out: Minimum inhibitory concentration required to inhibit microorganisms): 80 µg/mL (≈ 373 µM) | MIC (Salmonella choleraesuis): 80 µg/mL (≈ 373 µM) | killing at 40 ppm [1, 3]: 100% | killing at 80 ppm [1, 3]: 100% | killing at 40 ppm [1, 4]: 100% | killing at 80 ppm [1, 4]: 100% | killing at 40 ppm [1, 5]: 100% | killing at 80 ppm [1, 5]: 100% | killing at 40 ppm [1, 6]: 38.8% | killing at 80 ppm [1, 6]: 54.3% | killing at 40 ppm [1, 7]: 26.8% | killing at 80 ppm [1, 7]: 41.4% | killing at 40 ppm [1, 8]: 40% | killing at 80 ppm [1, 8]: 28.7% | killing at 40 ppm [1, 9]: 39.3% | killing at 80 ppm [1, 9]: 13.1% | killing at 40 ppm [1, 10]: 100% | killing at 80 ppm [1, 10]: 100% | killing at 40 ppm [1, 11]: 100% | killing at 80 ppm [1, 11]: 100% | killing at 40 ppm [1, 12]: 100% | killing at 80 ppm [1, 12]: 100% | killing at 40 ppm [1, 13]: 34.2% | killing at 80 ppm [1, 13]: 46% | killing at 40 ppm [1, 14]: 51.8% | killing at 80 ppm [1, 14]: 51.8% | killing at 40 ppm [1, 15]: 69.5% | killing at 80 ppm [1, 15]: 83.8% | killing at 40 ppm [1, 16]: 68.6% | killing at 80 ppm [1, 16]: 70.2% | killing at 40 ppm ([1]; 24 h, pH 6, Day 1 after preparation in soft water, pH 6.0, 24 hours contact): 100%
